Data reported in PubChem BioAssay AID2060892 (Molecular Pharmacology Branch, DTP, NCI, 2025).

Tested on: HOP-62 complex spheroids with HUVEC/MSC, viability
Assay: Anticancer human tumor HOP-62 cell line growth inhibition [RAS];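 note: spheroids exposed to agents for seven days before readout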;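 for viability, T/C: 100% = DMSO vehicle control viability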
Conditions: for IC50: curve of first compound; for viability, T/C: stronger effect = lower value
How it was run: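 Tumour cells grown as complex spheroids with HUVEC endothelial cells and mesenchymal stem cells, treated with RAS pathway inhibitor combinations. Each agent spans half-log steps from near clinical Cmax, or 10 microM where Cmax is unknown.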

Q: With CC(=O)OC12COC1CC(O)C1(C)C(=O)C(O)C3=C(C)C(OC(=O)C(O)C(NC(=O)OC(C)(C)C)c4ccccc4)CC(O)(C(OC(=O)c4ccccc4)C21)C3(C)C (centres undefined) + CCn1c(-c2cccnc2C(C)OC)c2c3cc(ccc31)N1CCOC(CC(NC(=O)C(C(C)C)N(C)C(=O)C3(F)CCN(C(=O)C#CC(C)(C)N(C)C)CC3)C(=O)N3CCCC(N3)C(=O)OCC(C)(C)C2)C1 as the compound, how does the IC50 (second compound 0.000949 µM) read?
A: < 31.6 nM

Q: What about the IC50 (second compound 0.003 µM) of the same compound?
A: < 31.6 nM

Q: What about the IC50 (second compound 0.00949 µM) of the same compound?
A: < 31.6 nM

Q: What about the IC50 (second compound 0.03 µM) of the same compound?
A: < 31.6 nM

Q: What about the IC50 (second compound 0.0949 µM) of the same compound?
A: < 31.6 nM

Q: And the IC50 (second compound 0.3 µM)?
A: < 31.6 nM

Q: And the viability, T/C (second compound 0.000949 µM, first compound 0.0316 µM)?
A: 31%

Q: What about the viability, T/C (second compound 0.000949 µM, first compound 0.1 µM) of the same compound?
A: 29.6%

Q: And the viability, T/C (second compound 0.000949 µM, first compound 0.316 µM)?
A: 20.6%

Q: And the viability, T/C (second compound 0.000949 µM, first compound 1 µM)?
A: 34.7%

Q: What about the viability, T/C (second compound 0.000949 µM, first compound 3.16 µM) of the same compound?
A: 48.4%

Q: And the viability, T/C (second compound 0.000949 µM, first compound 10 µM)?
A: 45.6%

Q: What about the viability, T/C (second compound 0.003 µM, first compound 0.0316 µM) of the same compound?
A: 32.6%

Q: What about the viability, T/C (second compound 0.003 µM, first compound 0.1 µM) of the same compound?
A: 32.1%

Q: And the viability, T/C (second compound 0.003 µM, first compound 0.316 µM)?
A: 37%

Q: And the viability, T/C (second compound 0.003 µM, first compound 1 µM)?
A: 33.3%

Q: What about the viability, T/C (second compound 0.003 µM, first compound 3.16 µM) of the same compound?
A: 52.1%

Q: What about the viability, T/C (second compound 0.003 µM, first compound 10 µM) of the same compound?
A: 39.7%

Q: What about the viability, T/C (second compound 0.00949 µM, first compound 0.0316 µM) of the same compound?
A: 30.8%

Q: What about the viability, T/C (second compound 0.00949 µM, first compound 0.1 µM) of the same compound?
A: 31.6%

Q: And the viability, T/C (second compound 0.00949 µM, first compound 0.316 µM)?
A: 29.4%

Q: What about the viability, T/C (second compound 0.00949 µM, first compound 1 µM) of the same compound?
A: 36.3%

Q: And the viability, T/C (second compound 0.00949 µM, first compound 3.16 µM)?
A: 39.3%

Q: What about the viability, T/C (second compound 0.00949 µM, first compound 10 µM) of the same compound?
A: 43.2%

Q: What about the viability, T/C (second compound 0.03 µM, first compound 0.0316 µM) of the same compound?
A: 31.4%

Q: And the viability, T/C (second compound 0.03 µM, first compound 0.1 µM)?
A: 32.9%

Q: And the viability, T/C (second compound 0.03 µM, first compound 0.316 µM)?
A: 31%

Q: And the viability, T/C (second compound 0.03 µM, first compound 1 µM)?
A: 35.4%

Q: And the viability, T/C (second compound 0.03 µM, first compound 3.16 µM)?
A: 33.1%

Q: And the viability, T/C (second compound 0.03 µM, first compound 10 µM)?
A: 46.4%

Q: And the viability, T/C (second compound 0.0949 µM, first compound 0.0316 µM)?
A: 34.2%

Q: And the viability, T/C (second compound 0.0949 µM, first compound 0.1 µM)?
A: 34.1%

Q: And the viability, T/C (second compound 0.0949 µM, first compound 0.316 µM)?
A: 36.6%

Q: What about the viability, T/C (second compound 0.0949 µM, first compound 1 µM) of the same compound?
A: 37.3%

Q: What about the viability, T/C (second compound 0.0949 µM, first compound 3.16 µM) of the same compound?
A: 34.9%

Q: And the viability, T/C (second compound 0.0949 µM, first compound 10 µM)?
A: 42.1%

Q: And the viability, T/C (second compound 0.3 µM, first compound 0.0316 µM)?
A: 28.1%

Q: And the viability, T/C (second compound 0.3 µM, first compound 0.1 µM)?
A: 40.2%

Q: What about the viability, T/C (second compound 0.3 µM, first compound 0.316 µM) of the same compound?
A: 31.8%

Q: What about the viability, T/C (second compound 0.3 µM, first compound 1 µM) of the same compound?
A: 37.9%

Q: And the viability, T/C (second compound 0.3 µM, first compound 3.16 µM)?
A: 33.5%

Q: And the viability, T/C (second compound 0.3 µM, first compound 10 µM)?
A: 36.9%

Q: What does the source list for CCc1c2c(nc3ccc(O)cc13)-c1cc3c(c(=O)n1C2)COC(=O)[C@]3(O)CC + CCn1c(-c2cccnc2C(C)OC)c2c3cc(ccc31)N1CCOC(CC(NC(=O)C(C(C)C)N(C)C(=O)C3(F)CCN(C(=O)C#CC(C)(C)N(C)C)CC3)C(=O)N3CCCC(N3)C(=O)OCC(C)(C)C2)C1?
A: IC50 (second compound 0.000949 µM): < 0.949 nM; IC50 (second compound 0.003 µM): < 0.949 nM; IC50 (second compound 0.00949 µM): < 0.949 nM; IC50 (second compound 0.03 µM): < 0.949 nM; IC50 (second compound 0.0949 µM): < 0.949 nM; IC50 (second compound 0.3 µM): < 0.949 nM; viability, T/C (second compound 0.000949 µM, first compound 0.000949 µM): 45%; viability, T/C (second compound 0.000949 µM, first compound 0.003 µM): 15.7%; viability, T/C (second compound 0.000949 µM, first compound 0.00949 µM): 6.01%; viability, T/C (second compound 0.000949 µM, first compound 0.03 µM): 6.3%; viability, T/C (second compound 0.000949 µM, first compound 0.0949 µM): 4.47%; viability, T/C (second compound 0.000949 µM, first compound 0.3 µM): 15.6%; viability, T/C (second compound 0.003 µM, first compound 0.000949 µM): 45.6%; viability, T/C (second compound 0.003 µM, first compound 0.003 µM): 14.3%; viability, T/C (second compound 0.003 µM, first compound 0.00949 µM): 7.48%; viability, T/C (second compound 0.003 µM, first compound 0.03 µM): 7.59%; viability, T/C (second compound 0.003 µM, first compound 0.0949 µM): 5.27%; viability, T/C (second compound 0.003 µM, first compound 0.3 µM): 2.57%; viability, T/C (second compound 0.00949 µM, first compound 0.000949 µM): 41.5%; viability, T/C (second compound 0.00949 µM, first compound 0.003 µM): 13.7%; viability, T/C (second compound 0.00949 µM, first compound 0.00949 µM): 8.71%; viability, T/C (second compound 0.00949 µM, first compound 0.03 µM): 5.6%; viability, T/C (second compound 0.00949 µM, first compound 0.0949 µM): 3.2%; viability, T/C (second compound 0.00949 µM, first compound 0.3 µM): 2.48%; viability, T/C (second compound 0.03 µM, first compound 0.000949 µM): 41%; viability, T/C (second compound 0.03 µM, first compound 0.003 µM): 14.1%; viability, T/C (second compound 0.03 µM, first compound 0.00949 µM): 7.78%; viability, T/C (second compound 0.03 µM, first compound 0.03 µM): 6.23%; viability, T/C (second compound 0.03 µM, first compound 0.0949 µM): 2.8%; viability, T/C (second compound 0.03 µM, first compound 0.3 µM): 3.13%; viability, T/C (second compound 0.0949 µM, first compound 0.000949 µM): 36.4%; viability, T/C (second compound 0.0949 µM, first compound 0.003 µM): 14.8%; viability, T/C (second compound 0.0949 µM, first compound 0.00949 µM): 9.82%; viability, T/C (second compound 0.0949 µM, first compound 0.03 µM): 6.01%; viability, T/C (second compound 0.0949 µM, first compound 0.0949 µM): 2.96%; viability, T/C (second compound 0.0949 µM, first compound 0.3 µM): 2.45%; viability, T/C (second compound 0.3 µM, first compound 0.000949 µM): 28.9%; viability, T/C (second compound 0.3 µM, first compound 0.003 µM): 13.9%; viability, T/C (second compound 0.3 µM, first compound 0.00949 µM): 11%; viability, T/C (second compound 0.3 µM, first compound 0.03 µM): 4.25%; viability, T/C (second compound 0.3 µM, first compound 0.0949 µM): 3.87%; viability, T/C (second compound 0.3 µM, first compound 0.3 µM): 2.14%
